Test results: the supplement of paper PMC10307832

Key:
Test in all cases: relative viability (nuclei count vs DMSO), 5 days (fraction); higher = more cells survive
[1] = compound: CN1CCN(CC1)C2=CC(=C(C=C2)NC3=NC(=C(S3)C(=O)C4=C(C=CC=C4Cl)Cl)N)OC [XMD14-99] + O=C(c1cc(Cc2n[nH]c(=O)c3ccccc23)ccc1F)N1CCN(C(=O)C2CC2)CC1 [Olaparib] (partner 8 µM)
In short: (§1)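 Medians of duplicate plates are given as relative viability. That measure is the nuclei count in treated wells divided by the count in vehicle wells. Counts were taken on 4× images of lung cancer cell lines in 1536-well plates, 5 days after pin-tool dosing the day after seeding with one drug alone or a fixed anchor-drug dose plus five library-drug doses (not always all listed) in √10 steps.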

[2] = compound: CN1CCN(CC1)C2=CC(=C(C=C2)NC3=NC(=C(S3)C(=O)C4=C(C=CC=C4Cl)Cl)N)OC [XMD14-99] + CCNC(=O)c1noc(-c2cc(C(C)C)c(O)cc2O)c1-c1ccc(CN2CCOCC2)cc1 [Luminespib] (partner 0.01 µM)
In short: as §1

[3] = compound: N[C@@H]1CCCN(c2c(/C=C3\SC(=O)NC3=O)cccc2-c2ccccc2)C1 [AZD1208] + C[C@]1(O)C[C@@H](c2nc(-c3ccc4ccc(-c5ccccc5)nc4c3)c3c(N)nccn32)C1 [Linsitinib] (partner 1 µM)
In short: as §1

[4] = compound: N[C@@H]1CCCN(c2c(/C=C3\SC(=O)NC3=O)cccc2-c2ccccc2)C1 [AZD1208] + Nc1ncn([C@H]2C[C@H](O)[C@@H](CO)O2)c(=O)n1 [Decitabine] (partner 2 µM)
In short: as §1

Row | Cell Line | relative viability ([1]; first compound 0.08 µM) | relative viability ([1]; first compound 0.8 µM) | relative viability ([1]; first compound 2.53 µM) | relative viability ([1]; first compound 8 µM) | relative viability ([2]; first compound 0.08 µM) | relative viability ([2]; first compound 0.8 µM) | relative viability ([2]; first compound 2.53 µM) | relative viability ([2]; first compound 8 µM) | relative viability ([3]; first compound 0.08 µM) | relative viability ([3]; first compound 0.253 µM) | relative viability ([3]; first compound 0.8 µM) | relative viability ([3]; first compound 2.53 µM) | relative viability ([3]; first compound 8 µM) | relative viability ([4]; first compound 0.08 µM) | relative viability ([4]; first compound 0.253 µM) | relative viability ([4]; first compound 0.8 µM) | relative viability ([4]; first compound 2.53 µM) | relative viability ([4]; first compound 8 µM)
1 | 201T | 0.861 | 0.799 | 0.776 | 0.695 | 1 | 1.01 | 0.993 | 0.829 | 1.02 | 1.05 | 0.989 | 1.01 | 0.979 | 0.886 | 0.868 | 0.855 | 0.97 | 0.893
2 | A549 | 0.471 | 0.377 | 0.311 | 0.27 |  |  |  |  | 0.513 | 0.553 | 0.504 | 0.462 | 0.512 | 0.238 | 0.301 | 0.218 | 0.314 | 0.17
3 | A-427 | 0.793 | 0.628 | 0.67 | 0.501 | 1.02 | 1.07 | 0.875 | 0.617 | 1.12 | 1.12 | 1 | 1.17 | 1.02 | 0.541 | 0.568 | 0.528 | 0.508 | 0.448
4 | ABC-1 | 0.696 | 1.03 | 0.737 | 0.673 | 0.511 | 0.7 | 0.806 | 0.382 | 0.808 | 0.717 | 0.626 | 0.747 | 0.732 | 0.926 | 1.07 | 0.992 | 0.989 | 0.821
5 | BEN | 0.979 | 1.06 | 0.786 | 0.773 | 0.377 | 0.419 | 0.271 | 0.285 | 0.815 | 0.806 | 0.654 | 0.572 | 0.46 | 0.779 | 0.577 | 0.653 | 0.653 | 0.564
6 | CAL-12T | 0.674 | 0.785 | 0.671 | 0.607 | 0.387 | 0.524 | 0.358 | 0.346 | 0.721 | 1.13 | 0.761 | 0.86 | 0.909 |  |  |  |  | 
7 | COR-L23 | 0.345 | 0.298 | 0.298 | 0.193 | 0.578 | 0.613 | 0.515 | 0.419 | 0.84 | 1.09 | 0.824 | 0.825 | 0.771 | 0.439 | 0.502 | 0.412 | 0.396 | 0.395
8 | COR-L 105 | 0.657 | 0.699 | 0.682 | 0.621 | 0.693 | 0.845 | 0.778 | 0.466 | 0.985 | 0.884 | 0.972 | 0.949 | 0.939 | 0.734 | 0.672 | 0.633 | 0.628 | 0.538
9 | Calu-6 | 0.524 | 0.529 | 0.502 | 0.472 |  |  |  |  | 0.86 | 1.03 | 0.919 | 0.967 | 0.872 |  |  |  |  | 
10 | ChaGo-K-1 | 0.473 | 0.438 | 0.403 | 0.292 | 0.565 | 0.599 | 0.609 | 0.513 |  |  |  |  |  | 0.522 | 0.509 | 0.399 | 0.481 | 0.465
11 | EBC-1 | 0.771 | 0.635 | 0.646 | 0.382 |  |  |  |  | 0.981 | 1.08 | 0.821 | 0.905 | 0.764 |  |  |  |  | 
12 | EKVX | 0.763 | 0.837 | 0.904 | 0.73 | 0.905 | 0.814 | 0.768 | 0.802 | 0.996 | 1.19 | 0.917 | 0.87 | 1.11 | 0.286 | 0.356 | 0.327 | 0.351 | 0.344
13 | EMC-BAC-2 | 0.507 | 0.483 | 0.443 | 0.422 | 1.19 | 1.13 | 0.99 | 1.01 | 0.848 | 0.818 | 0.747 | 0.815 | 0.796 | 0.932 | 0.94 | 0.903 | 0.992 | 0.812
14 | EPLC-272H | 0.711 | 0.809 | 0.802 | 0.422 | 0.658 | 0.512 | 0.417 | 0.195 | 1.31 | 1.17 | 0.995 | 1.21 | 1.09 | 0.412 | 0.342 | 0.392 | 0.364 | 0.368
15 | H3255 | 0.577 | 0.507 | 0.491 | 0.343 | 0.958 | 0.934 | 0.781 | 0.614 | 1.02 | 1.05 | 0.866 | 0.973 | 0.891 | 0.689 | 0.714 | 0.56 | 0.589 | 0.523
16 | HARA | 0.816 | 0.999 | 0.589 | 0.491 | 0.311 | 0.685 | 0.581 | 0.207 | 0.948 | 1.02 | 0.899 | 0.964 | 0.877 | 0.767 | 0.578 | 0.486 | 0.536 | 0.545
17 | HCC-15 | 0.688 | 0.661 | 0.706 | 0.441 | 0.412 | 0.258 | 0.214 | 0.256 | 0.811 | 0.864 | 0.648 | 0.793 | 0.655 | 0.612 | 0.624 | 0.491 | 0.576 | 0.575
18 | HCC-44 | 1.08 | 1.01 | 1.01 | 0.956 | 1.01 | 0.968 | 1.07 | 0.753 | 0.634 | 0.676 | 0.665 | 0.672 | 0.593 | 0.98 | 0.907 | 0.939 | 0.995 | 0.916

Row | Cell Line | relative viability ([1]; first compound 0.08 µM) | relative viability ([1]; first compound 0.8 µM) | relative viability ([1]; first compound 2.53 µM) | relative viability ([1]; first compound 8 µM) | relative viability ([2]; first compound 0.08 µM) | relative viability ([2]; first compound 0.8 µM) | relative viability ([2]; first compound 2.53 µM) | relative viability ([2]; first compound 8 µM) | relative viability ([3]; first compound 0.08 µM) | relative viability ([3]; first compound 0.253 µM) | relative viability ([3]; first compound 0.8 µM) | relative viability ([3]; first compound 2.53 µM) | relative viability ([3]; first compound 8 µM) | relative viability ([4]; first compound 0.08 µM) | relative viability ([4]; first compound 0.253 µM) | relative viability ([4]; first compound 0.8 µM) | relative viability ([4]; first compound 2.53 µM) | relative viability ([4]; first compound 8 µM)
19 | HCC-78 | 0.716 | 0.799 | 0.724 | 0.589 |  |  |  |  | 0.513 | 0.495 | 0.45 | 0.439 | 0.415 | 0.685 | 0.629 | 0.646 | 0.704 | 0.697
20 | HCC-366 | 0.375 | 0.344 | 0.315 | 0.243 |  |  |  |  | 0.626 | 0.588 | 0.5 | 0.558 | 0.439 | 0.315 | 0.354 | 0.312 | 0.386 | 0.333
21 | HCC-827 | 0.596 | 0.632 | 0.622 | 0.491 | 0.492 | 0.669 | 0.595 | 0.617 | 0.965 | 1.03 | 1.01 | 1.01 | 1.02 | 0.435 | 0.327 | 0.281 | 0.341 | 0.335
22 | HOP-62 | 0.536 | 0.634 | 0.501 | 0.312 | 0.93 | 0.878 | 0.846 | 0.778 | 1.06 | 0.843 | 1.05 | 1.11 | 0.623 | 0.231 | 0.212 | 0.22 | 0.254 | 0.24
23 | IA-LM | 0.943 | 0.691 | 0.68 | 0.352 |  |  |  |  | 0.625 | 0.827 | 0.524 | 0.529 | 0.69 |  |  |  |  | 
24 | LC-2-ad | 0.687 | 0.707 | 0.628 | 0.498 | 1.04 | 0.984 | 0.824 | 0.582 | 0.803 | 0.673 | 0.833 | 0.801 | 0.894 | 0.79 | 0.8 | 0.781 | 0.879 | 0.79
25 | LCLC-97TM1 | 0.415 | 0.351 | 0.35 | 0.209 | 0.843 | 0.747 | 0.728 | 0.516 | 0.156 | 0.206 |  | 0.133 | 0.132 | 0.175 | 0.209 | 0.238 | 0.233 | 0.178
26 | NCI-H522 | 0.586 | 0.808 | 0.594 | 0.557 | 1.05 | 1.28 | 1.2 | 1.18 |  |  |  |  |  | 0.678 | 0.634 | 0.73 | 0.643 | 0.636
27 | NCI-H1299 | 0.929 | 0.969 | 0.935 | 0.742 |  |  |  |  | 1.03 | 1.13 | 0.997 | 1.01 | 1.08 |  |  |  |  | 
28 | NCI-H1563 |  |  |  |  | 0.505 | 0.551 | 0.546 | 0.48 | 1.18 | 1.19 | 1.18 | 1.26 | 1.16 |  |  |  |  | 
29 | NCI-H1623 |  |  |  |  | 0.509 | 0.475 | 0.454 | 0.444 |  |  |  |  |  |  |  |  |  | 
30 | NCI-H1648 | 0.95 | 0.433 | 0.654 | 0.316 |  |  |  |  |  |  |  |  |  | 0.631 | 0.476 | 0.464 | 0.547 | 0.567
31 | NCI-H1650 | 0.834 | 0.597 | 0.639 | 0.734 | 0.21 | 0.208 | 0.189 | 0.188 |  |  |  |  |  | 0.513 | 0.502 | 0.403 | 0.376 | 0.449
32 | NCI-H1703 | 0.492 | 0.456 | 0.622 | 0.269 |  |  |  |  | 0.751 | 0.56 | 0.602 | 0.651 | 0.508 |  |  |  |  | 
33 | NCI-H2170 | 0.543 | 0.565 | 0.537 | 0.466 | 0.652 | 0.59 | 0.755 | 0.372 |  |  |  |  |  | 0.439 | 0.498 | 0.417 | 0.481 | 0.369
34 | NCI-H2228 | 0.776 | 0.603 | 0.706 | 0.273 | 0.147 | 0.19 | 0.153 | 0.104 | 0.493 | 0.596 | 0.546 |  | 0.356 |  |  |  |  | 
35 | NCI-H2342 | 0.548 | 0.459 | 0.484 | 0.409 | 0.778 | 0.725 | 0.787 | 0.745 |  |  |  |  |  | 0.772 | 0.736 | 0.595 | 0.674 | 0.581
36 | SW 900 | 0.831 | 0.845 | 0.766 | 0.525 | 0.165 | 0.163 | 0.204 | 0.144 |  |  |  |  |  | 0.456 | 0.407 | 0.382 | 0.395 | 0.444
